# Patent publication US12617758B2, “Quinazoline derivative having FLT3 inhibitory activity, and use thereof” (INDUSTRY-UNIVERSITY COOPERATION FOUNDATION HANYANG …, priority 2020, dated 2026)
# Like-named read-outs stand apart in the source and are kept apart here.
# Key:
# Assay type in all cases: biochemical
# FLT (ITD) = target: T1, FLT (ITD) (Homo sapiens, UniProt P36888); assay: FLT (ITD) enzyme activity (IC50)
# T1 sequence (P36888 1-993): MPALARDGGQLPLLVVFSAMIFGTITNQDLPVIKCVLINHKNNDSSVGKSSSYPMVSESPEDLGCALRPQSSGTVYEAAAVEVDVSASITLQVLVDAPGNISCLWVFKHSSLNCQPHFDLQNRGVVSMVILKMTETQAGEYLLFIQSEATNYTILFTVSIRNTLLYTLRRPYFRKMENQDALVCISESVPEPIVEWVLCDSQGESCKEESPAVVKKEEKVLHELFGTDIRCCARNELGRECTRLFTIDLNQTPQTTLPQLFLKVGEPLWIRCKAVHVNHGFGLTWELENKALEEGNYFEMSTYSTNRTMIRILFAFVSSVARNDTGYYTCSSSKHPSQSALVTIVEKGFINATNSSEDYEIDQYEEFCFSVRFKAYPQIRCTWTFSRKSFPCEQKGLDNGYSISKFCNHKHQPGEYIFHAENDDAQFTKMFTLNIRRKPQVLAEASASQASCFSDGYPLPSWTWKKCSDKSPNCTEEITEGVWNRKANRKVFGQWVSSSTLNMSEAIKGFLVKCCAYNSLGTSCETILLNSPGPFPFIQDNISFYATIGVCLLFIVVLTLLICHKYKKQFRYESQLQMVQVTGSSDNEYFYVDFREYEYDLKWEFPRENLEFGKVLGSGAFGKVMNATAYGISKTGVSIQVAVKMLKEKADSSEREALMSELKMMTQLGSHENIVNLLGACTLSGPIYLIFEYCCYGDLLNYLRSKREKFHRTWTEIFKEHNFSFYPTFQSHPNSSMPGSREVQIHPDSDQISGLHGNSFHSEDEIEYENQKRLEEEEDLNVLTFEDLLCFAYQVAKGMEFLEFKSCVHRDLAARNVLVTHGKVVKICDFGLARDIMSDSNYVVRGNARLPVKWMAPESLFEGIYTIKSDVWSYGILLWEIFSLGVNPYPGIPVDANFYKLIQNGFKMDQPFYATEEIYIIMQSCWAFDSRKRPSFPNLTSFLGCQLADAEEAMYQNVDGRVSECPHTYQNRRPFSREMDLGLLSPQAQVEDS
# Text: Experimental Example 1. Measurement of FLT3 and FLT Enzyme Activity
# Changes in FLT3 and FLT enzyme activities by treatment with the quinazoline derivatives of the following Table 1 according to the present invention were confirmed by IC50.
# AKT1 = AKT1 (Homo sapiens, UniProt P31749); assay: Kinase panel screening; conditions: single dose of 10 μM, read-out: % inhibition rate
# ALK = ALK (Homo sapiens, UniProt Q9UM73); assay: Kinase panel screening; conditions: single dose of 10 μM, read-out: % inhibition rate
# Sequence of ALK (Q9UM73 19-1620, species assumed): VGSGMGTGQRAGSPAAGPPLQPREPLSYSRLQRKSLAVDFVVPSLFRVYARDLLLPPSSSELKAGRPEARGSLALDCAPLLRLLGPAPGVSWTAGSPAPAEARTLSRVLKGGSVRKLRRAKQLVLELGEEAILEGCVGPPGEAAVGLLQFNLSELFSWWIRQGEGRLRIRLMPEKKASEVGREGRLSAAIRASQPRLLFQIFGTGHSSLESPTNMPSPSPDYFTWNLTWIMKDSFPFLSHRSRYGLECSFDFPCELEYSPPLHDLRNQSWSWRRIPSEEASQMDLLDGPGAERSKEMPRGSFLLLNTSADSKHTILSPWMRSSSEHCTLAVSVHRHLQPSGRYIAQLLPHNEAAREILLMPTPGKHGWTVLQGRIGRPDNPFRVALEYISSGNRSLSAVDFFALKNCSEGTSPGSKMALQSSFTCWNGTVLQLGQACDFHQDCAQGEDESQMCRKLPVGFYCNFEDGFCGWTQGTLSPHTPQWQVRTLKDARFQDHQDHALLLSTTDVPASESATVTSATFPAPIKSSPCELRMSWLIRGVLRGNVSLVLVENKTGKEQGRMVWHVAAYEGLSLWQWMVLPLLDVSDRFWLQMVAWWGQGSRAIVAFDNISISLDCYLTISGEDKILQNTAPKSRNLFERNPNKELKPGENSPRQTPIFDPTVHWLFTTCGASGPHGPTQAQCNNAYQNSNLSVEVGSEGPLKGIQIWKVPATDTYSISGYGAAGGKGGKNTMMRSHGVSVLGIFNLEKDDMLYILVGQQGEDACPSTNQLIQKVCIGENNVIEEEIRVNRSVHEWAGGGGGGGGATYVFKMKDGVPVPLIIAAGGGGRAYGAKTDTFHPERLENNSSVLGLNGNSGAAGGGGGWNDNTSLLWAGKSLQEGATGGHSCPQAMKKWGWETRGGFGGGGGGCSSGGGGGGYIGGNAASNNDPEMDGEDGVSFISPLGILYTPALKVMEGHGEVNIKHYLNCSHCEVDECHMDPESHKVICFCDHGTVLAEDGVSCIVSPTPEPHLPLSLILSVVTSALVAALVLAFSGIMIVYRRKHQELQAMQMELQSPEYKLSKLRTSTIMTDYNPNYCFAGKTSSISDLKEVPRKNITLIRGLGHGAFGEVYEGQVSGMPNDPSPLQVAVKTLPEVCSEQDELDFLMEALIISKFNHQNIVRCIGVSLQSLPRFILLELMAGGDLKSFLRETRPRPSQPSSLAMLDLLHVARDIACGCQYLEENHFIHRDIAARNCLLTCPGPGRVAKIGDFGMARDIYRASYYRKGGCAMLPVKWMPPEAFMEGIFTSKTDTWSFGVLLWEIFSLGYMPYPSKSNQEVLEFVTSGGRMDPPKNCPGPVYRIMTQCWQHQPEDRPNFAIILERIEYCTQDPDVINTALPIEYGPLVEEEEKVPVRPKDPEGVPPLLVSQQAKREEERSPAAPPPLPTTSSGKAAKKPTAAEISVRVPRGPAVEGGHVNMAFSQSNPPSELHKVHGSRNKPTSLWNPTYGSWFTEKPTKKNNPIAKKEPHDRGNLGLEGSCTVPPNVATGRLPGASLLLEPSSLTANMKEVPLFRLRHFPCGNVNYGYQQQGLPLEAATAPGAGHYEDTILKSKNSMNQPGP
# c-MET = c-MET (Homo sapiens, UniProt P08581); assay: Kinase panel screening; conditions: single dose of 10 μM, read-out: % inhibition rate
# c-Src = c-Src (Homo sapiens, UniProt P12931); assay: Kinase panel screening; conditions: single dose of 10 μM, read-out: % inhibition rate
# Sequence of c-Src (P12931 whole entry, species assumed): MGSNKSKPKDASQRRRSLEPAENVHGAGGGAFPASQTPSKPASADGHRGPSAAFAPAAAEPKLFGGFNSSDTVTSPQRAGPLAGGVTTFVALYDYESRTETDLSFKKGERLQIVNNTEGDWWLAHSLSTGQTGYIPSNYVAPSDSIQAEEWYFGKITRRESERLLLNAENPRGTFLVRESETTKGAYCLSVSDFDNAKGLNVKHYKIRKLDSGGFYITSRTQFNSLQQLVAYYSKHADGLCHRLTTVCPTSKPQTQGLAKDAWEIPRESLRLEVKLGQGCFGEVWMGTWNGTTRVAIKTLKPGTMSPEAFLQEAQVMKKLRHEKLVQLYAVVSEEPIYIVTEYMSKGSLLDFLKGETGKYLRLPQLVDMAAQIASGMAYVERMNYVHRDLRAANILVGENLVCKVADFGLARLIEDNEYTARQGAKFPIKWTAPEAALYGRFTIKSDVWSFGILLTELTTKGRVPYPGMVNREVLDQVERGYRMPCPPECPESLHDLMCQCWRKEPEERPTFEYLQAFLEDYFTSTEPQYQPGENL
# CDK4/cyclin D1 = CDK4/cyclin D1 (Homo sapiens, UniProt P11802); assay: Kinase panel screening; conditions: single dose of 10 μM, read-out: % inhibition rate
# Sequence of CDK4/cyclin D1 (P11802 whole entry, species assumed): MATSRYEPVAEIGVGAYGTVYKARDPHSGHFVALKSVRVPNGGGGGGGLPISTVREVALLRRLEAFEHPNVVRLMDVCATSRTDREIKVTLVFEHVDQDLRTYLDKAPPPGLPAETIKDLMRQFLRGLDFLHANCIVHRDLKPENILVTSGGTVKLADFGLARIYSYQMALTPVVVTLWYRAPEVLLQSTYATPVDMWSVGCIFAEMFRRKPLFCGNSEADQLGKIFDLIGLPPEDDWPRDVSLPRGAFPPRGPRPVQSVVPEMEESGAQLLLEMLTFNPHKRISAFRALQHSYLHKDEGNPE
# Sequence of CDK4/cyclin D1 (P24385 whole entry partner, species assumed): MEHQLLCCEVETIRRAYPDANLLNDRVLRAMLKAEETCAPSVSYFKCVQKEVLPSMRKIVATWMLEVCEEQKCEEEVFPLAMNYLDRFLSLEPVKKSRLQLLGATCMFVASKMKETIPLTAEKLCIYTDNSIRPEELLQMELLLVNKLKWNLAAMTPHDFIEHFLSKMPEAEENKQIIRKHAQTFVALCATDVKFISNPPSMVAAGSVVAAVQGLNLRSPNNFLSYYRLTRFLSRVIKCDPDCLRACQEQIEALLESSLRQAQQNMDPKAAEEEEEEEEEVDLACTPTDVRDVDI
# FLT3 = target: T2, FLT3 (Homo sapiens, UniProt P36888); assay: Kinase panel screening; conditions: single dose of 10 μM
# T2 sequence (P36888 27-993): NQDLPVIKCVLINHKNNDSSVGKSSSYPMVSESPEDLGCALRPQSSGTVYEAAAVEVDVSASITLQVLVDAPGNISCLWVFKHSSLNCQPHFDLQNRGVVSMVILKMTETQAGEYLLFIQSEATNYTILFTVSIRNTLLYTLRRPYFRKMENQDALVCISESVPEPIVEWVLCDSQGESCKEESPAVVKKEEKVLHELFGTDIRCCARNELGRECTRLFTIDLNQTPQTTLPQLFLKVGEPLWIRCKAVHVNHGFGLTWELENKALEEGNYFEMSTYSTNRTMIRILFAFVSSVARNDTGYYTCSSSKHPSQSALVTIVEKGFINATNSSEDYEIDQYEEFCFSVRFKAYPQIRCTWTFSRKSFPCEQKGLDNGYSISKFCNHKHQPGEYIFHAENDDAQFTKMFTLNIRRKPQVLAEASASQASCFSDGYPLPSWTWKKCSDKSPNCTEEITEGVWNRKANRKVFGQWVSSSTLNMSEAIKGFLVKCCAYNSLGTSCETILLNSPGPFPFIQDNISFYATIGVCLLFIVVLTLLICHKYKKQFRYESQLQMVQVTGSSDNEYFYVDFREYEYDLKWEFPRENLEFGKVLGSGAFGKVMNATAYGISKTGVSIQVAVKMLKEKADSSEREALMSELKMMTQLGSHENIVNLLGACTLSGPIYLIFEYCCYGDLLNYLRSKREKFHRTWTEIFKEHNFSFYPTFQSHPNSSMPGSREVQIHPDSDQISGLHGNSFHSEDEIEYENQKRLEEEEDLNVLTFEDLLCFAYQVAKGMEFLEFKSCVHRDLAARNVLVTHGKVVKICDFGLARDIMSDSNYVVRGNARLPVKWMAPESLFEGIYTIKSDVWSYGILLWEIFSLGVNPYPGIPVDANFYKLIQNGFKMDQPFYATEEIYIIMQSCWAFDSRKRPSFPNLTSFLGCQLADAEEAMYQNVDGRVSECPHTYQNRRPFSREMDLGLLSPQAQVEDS
# FLT3-ITD = FLT3-ITD (Homo sapiens, UniProt P36888); assay: Kinase panel screening; conditions: single dose of 10 μM
# FMS = FMS (Homo sapiens, UniProt P07333); assay: Kinase panel screening; conditions: single dose of 10 μM, read-out: % inhibition rate
# JNK3 = JNK3 (Homo sapiens, UniProt P53779); assay: Kinase panel screening; conditions: single dose of 10 μM, read-out: % inhibition rate
# Sequence of JNK3 (P53779 whole entry, species assumed): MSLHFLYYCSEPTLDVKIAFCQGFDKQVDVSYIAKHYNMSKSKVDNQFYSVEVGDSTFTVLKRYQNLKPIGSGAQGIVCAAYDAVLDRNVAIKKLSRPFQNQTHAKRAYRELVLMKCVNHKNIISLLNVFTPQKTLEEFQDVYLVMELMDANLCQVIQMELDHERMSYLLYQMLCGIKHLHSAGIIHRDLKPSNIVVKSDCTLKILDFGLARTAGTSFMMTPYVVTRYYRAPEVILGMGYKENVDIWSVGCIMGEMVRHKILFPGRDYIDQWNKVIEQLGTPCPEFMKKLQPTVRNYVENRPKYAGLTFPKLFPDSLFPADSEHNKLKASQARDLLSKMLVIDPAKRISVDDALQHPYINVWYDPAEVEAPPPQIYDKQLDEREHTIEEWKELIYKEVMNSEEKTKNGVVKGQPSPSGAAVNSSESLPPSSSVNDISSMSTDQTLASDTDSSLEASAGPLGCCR
# KDR/VEGFR2 = KDR/VEGFR2 (Homo sapiens, UniProt P35968); assay: Kinase panel screening; conditions: single dose of 10 μM, read-out: % inhibition rate
# Sequence of KDR/VEGFR2 (P35968 20-1356): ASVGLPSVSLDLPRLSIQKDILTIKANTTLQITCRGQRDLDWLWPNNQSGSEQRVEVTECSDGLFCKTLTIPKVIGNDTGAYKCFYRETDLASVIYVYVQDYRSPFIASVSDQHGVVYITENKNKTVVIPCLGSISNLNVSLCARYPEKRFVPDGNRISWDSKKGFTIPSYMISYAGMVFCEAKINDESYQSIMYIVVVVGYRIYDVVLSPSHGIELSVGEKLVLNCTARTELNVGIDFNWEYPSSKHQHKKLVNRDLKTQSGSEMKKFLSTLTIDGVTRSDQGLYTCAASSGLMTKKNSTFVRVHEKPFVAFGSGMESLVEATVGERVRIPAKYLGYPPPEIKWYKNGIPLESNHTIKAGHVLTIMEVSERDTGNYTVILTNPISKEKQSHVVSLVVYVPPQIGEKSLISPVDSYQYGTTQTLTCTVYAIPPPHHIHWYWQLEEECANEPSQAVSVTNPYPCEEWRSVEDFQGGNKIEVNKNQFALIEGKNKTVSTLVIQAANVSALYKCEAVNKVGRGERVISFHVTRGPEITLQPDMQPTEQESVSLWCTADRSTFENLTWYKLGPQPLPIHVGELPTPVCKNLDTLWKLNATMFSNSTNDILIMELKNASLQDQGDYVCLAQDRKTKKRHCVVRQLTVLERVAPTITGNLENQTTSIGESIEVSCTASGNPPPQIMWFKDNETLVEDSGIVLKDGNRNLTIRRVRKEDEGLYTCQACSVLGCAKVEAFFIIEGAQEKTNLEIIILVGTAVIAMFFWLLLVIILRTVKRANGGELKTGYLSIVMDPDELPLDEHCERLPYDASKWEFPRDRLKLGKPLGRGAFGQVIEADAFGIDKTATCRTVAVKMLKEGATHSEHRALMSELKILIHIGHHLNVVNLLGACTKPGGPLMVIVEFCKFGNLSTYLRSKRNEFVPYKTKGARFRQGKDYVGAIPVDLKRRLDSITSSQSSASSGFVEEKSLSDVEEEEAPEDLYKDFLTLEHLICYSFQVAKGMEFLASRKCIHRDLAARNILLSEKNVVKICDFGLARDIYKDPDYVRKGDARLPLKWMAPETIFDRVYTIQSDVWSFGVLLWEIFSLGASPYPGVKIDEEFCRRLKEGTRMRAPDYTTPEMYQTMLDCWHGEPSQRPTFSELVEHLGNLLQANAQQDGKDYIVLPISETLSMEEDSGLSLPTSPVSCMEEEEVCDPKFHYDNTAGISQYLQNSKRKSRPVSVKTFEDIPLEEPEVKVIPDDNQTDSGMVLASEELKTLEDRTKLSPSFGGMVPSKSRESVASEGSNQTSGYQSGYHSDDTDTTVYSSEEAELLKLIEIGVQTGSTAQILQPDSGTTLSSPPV
# LCK = LCK (Homo sapiens, UniProt P06239); assay: Kinase panel screening; conditions: single dose of 10 μM, read-out: % inhibition rate
# Sequence of LCK (P06239 whole entry, species assumed): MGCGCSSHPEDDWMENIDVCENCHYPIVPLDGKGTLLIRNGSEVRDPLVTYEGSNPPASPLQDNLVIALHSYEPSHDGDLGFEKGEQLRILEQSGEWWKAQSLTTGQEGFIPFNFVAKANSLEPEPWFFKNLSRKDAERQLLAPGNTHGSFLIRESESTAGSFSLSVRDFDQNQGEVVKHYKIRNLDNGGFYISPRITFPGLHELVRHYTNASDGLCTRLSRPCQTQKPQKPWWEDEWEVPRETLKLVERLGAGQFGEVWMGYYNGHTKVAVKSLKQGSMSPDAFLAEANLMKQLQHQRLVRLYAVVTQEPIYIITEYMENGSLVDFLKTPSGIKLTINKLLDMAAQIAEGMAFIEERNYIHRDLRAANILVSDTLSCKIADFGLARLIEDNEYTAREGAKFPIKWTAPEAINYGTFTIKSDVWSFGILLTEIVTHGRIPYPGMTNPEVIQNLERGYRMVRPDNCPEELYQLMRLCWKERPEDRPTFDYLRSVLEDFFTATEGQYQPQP
# P38a/MAPK14 = P38a/MAPK14 (Homo sapiens, UniProt Q16539); assay: Kinase panel screening; conditions: single dose of 10 μM, read-out: % inhibition rate
# PKA = PKA (Homo sapiens, UniProt P17612); assay: Kinase panel screening; conditions: single dose of 10 μM, read-out: % inhibition rate
# RON/MST1R = RON/MST1R (Homo sapiens, UniProt Q04912); assay: Kinase panel screening; conditions: single dose of 10 μM, read-out: % inhibition rate
# ROS/ROS1 = ROS/ROS1 (Homo sapiens, UniProt P08922); assay: Kinase panel screening; conditions: single dose of 10 μM, read-out: % inhibition rate
smiles,measurement,setting,value
"Cc1oncc1C(=O)Nc1ccc2cnc(-c3cc(N4CCN(C)CC4)cc(C(F)(F)F)c3)nc2c1 [Compound 7d, 5-methyl-N-(2-(3-(4-methylpiperazin-1-yl)-5-(trifluoromethyl)phenyl)quinazolin-7-yl)isoxazole-4-carboxamide]",IC50,FLT (ITD); read-out: FLT (ITD) IC50,< 3 µM
same,IC50,FLT (ITD); read-out: IC50 against FLT-ITD,0.301 µM
same,inhibition at 10 µM,AKT1,5.48%
same,inhibition at 10 µM,ALK,17%
same,inhibition at 10 µM,c-MET,13.2%
same,inhibition at 10 µM,c-Src,14.6%
same,inhibition at 10 µM,CDK4/cyclin D1,3.01%
same,% inhibition rate,FLT3,96.6%
same,% inhibition rate,FLT3-ITD,95.2%
same,inhibition at 10 µM,FMS,5.49%
same,inhibition at 10 µM,JNK3,19.5%
same,inhibition at 10 µM,KDR/VEGFR2,16.8%
same,inhibition at 10 µM,LCK,19.7%
same,inhibition at 10 µM,P38a/MAPK14,0%
same,inhibition at 10 µM,PKA,2.5%
same,inhibition at 10 µM,RON/MST1R,13.5%
same,inhibition at 10 µM,ROS/ROS1,14.4%
